Measured values from US9464326B2, “Total and phosphorylated IL-1 receptor-associated kinase-1 and IL-1 receptor-associated kinase-4 as a biomarker for cancer progression and chemotherapy resistance” (University of Maryland, Baltimore, priority 2012, dated 2016).

Assays:
MO = assay: Proliferation (3H-thymidine) of MO; type: cell-based, human; settings: 3H-thymidine uptake, 72 h
Text: (§1) CCRF-CEM, CEM/C1, CEM/C2, CEM-C7, Jurkat, Loucy, Molt-4, HSB-2, SUP-T1, Hut 78, HH, Hut 102, MO, and H9 T-leukemia and T-lymphoma cell lines were purchased from the American Type Culture Collection (Manassas, Va., USA). All of the cell lines were initially expanded and cryopreserved within one month of receipt. Cells were typically used for 6 months at which time a fresh vial of cryopreserved cells was used. Total T cells from healthy donors were isolated via negative selection followed by positive selection using a CD3+ selection kit (Invitrogen, Carlsbad, Calif.). T cells were isolated from patients with T-ALL bone marrow or peripheral blood samples containing more than 70% leukemia cells using a CD2+ isolation kit (STEMCELL Technologies, Vancouver, Canada). All tissues were collected under institutional IRB-approved protocols and all participants gave written informed assent/consent. For in vitro experiments, T-ALL cells were cultured in AIM-V medium supplemented with 20% human AB serum in the presence of recombinant human stem cell factor (50 ng/mL; Amgen, Thousand Oaks, Calif.), insulin (20 nM; Sigma-Aldrich, St Louis, Mo., USA) and IL-7 (50 ng/mL; R&D Systems, Minneapolis, Minn., USA). […]
(§2) Cells were cultured in a 96-well plate (Corning Costar, Corning, N.Y., USA) with various concentrations of TLR ligands 1-9, starting at 10 μg/ml, in a final volume of 200 ul. […] After this time point, cells were harvested with a Packard Filter-Mate-96 cell harvester (Perkin Elmer, Waltham, Mass., USA) and counted on Packard Top Count-NXT (Perkin Elmer, Waltham, Mass., USA). Results were expressed as average counts per minute (cpm). […] Forty-eight hours later, proliferation (±SD) was determined by ^3H-thymidine incorporation. Alternatively, apoptosis was measured by flow cytometry after staining cells with Annexin-V (BD Pharmingen, San Diego, Calif., USA) and propidium iodide (Sigma). Cell number was counted under microscopy by staining cells with trypan blue. […]

HSB-2 = assay: Proliferation (3H-thymidine) of HSB-2; type: cell-based, human
Text: (§3) CCRF-CEM, CEM/C1, CEM/C2, CEM-C7, Jurkat, Loucy, Molt-4, HSB-2, SUP-T1, Hut 78, HH, Hut 102, MO, and H9 T-leukemia and T-lymphoma cell lines were purchased from the American Type Culture Collection (Manassas, Va., USA). All of the cell lines were initially expanded and cryopreserved within one month of receipt. Cells were typically used for 6 months at which time a fresh vial of cryopreserved cells was used. Total T cells from healthy donors were isolated via negative selection followed by positive selection using a CD3+ selection kit (Invitrogen, Carlsbad, Calif.). T cells were isolated from patients with T-ALL bone marrow or peripheral blood samples containing more than 70% leukemia cells using a CD2+ isolation kit (STEMCELL Technologies, Vancouver, Canada). All tissues were collected under institutional IRB-approved protocols and all participants gave written informed assent/consent. For in vitro experiments, T-ALL cells were cultured in AIM-V medium supplemented with 20% human AB serum in the presence of recombinant human stem cell factor (50 ng/mL; Amgen, Thousand Oaks, Calif.), insulin (20 nM; Sigma-Aldrich, St Louis, Mo., USA) and IL-7 (50 ng/mL; R&D Systems, Minneapolis, Minn., USA). In other experiments, protein lysate was collected using the Full Moon Biosystems (Sunnyvale, Calif., USA) buffer prior to protein examination by western blot or protein array.
(§4) Cells were cultured in a 96-well plate (Corning Costar, Corning, N.Y., USA) with various concentrations of TLR ligands 1-9, starting at 10 μg/ml, in a final volume of 200 ul. TLR ligands were diluted 2-fold. Cell lines (25-40×10^3/well) were cultured for 54 hours, whereas fresh patient-derived T-ALL cells (200×10^3/well) were cultured for 30 hours prior to adding [^3H]-thymidine for 18 hours. After this time point, cells were harvested with a Packard Filter-Mate-96 cell harvester (Perkin Elmer, Waltham, Mass., USA) and counted on Packard Top Count-NXT (Perkin Elmer, Waltham, Mass., USA). Results were expressed as average counts per minute (cpm). In some experiments CCRF-CEM cells were pre-treated with TLR1-TLR2 ligand (Pam3CysK4; 2.5 ug/ml) for 48 hrs, washed, and then cultured in the presence of varying concentrations of FBS. Forty-eight hours later, proliferation (±SD) was determined by ^3H-thymidine incorporation. Alternatively, apoptosis was measured by flow cytometry after staining cells with Annexin-V (BD Pharmingen, San Diego, Calif., USA) and propidium iodide (Sigma). Cell number was counted under microscopy by staining cells with trypan blue.
(§5) The following TLR ligands were purchased from Invivogen (San Diego, Calif., USA): tripalmitoyl-S-(bis(palmitoyloxy)propyl)-Cys-Ser-(Lys)3-Lys (TLR1-2); Poly I:C (TLR3); ultrapure S. Minnesota Lipopolysaccharide (TLR4); S. typhimurium flagellin (TLR5); FSL-1 (TLR2/6); Imiquimod (TLR7); ssRNA40/Lyovec (TLR8); CpG-ODN 2006 (TLR9).

CEM-C2 = assay: Proliferation (3H-thymidine) of CEM-C2; type: cell-based, human; settings: 3H-thymidine uptake, 72 h
Text: as §3
as §4, with “blue. […]” for “blue.”

Hut-78 = assay: Proliferation (3H-thymidine) of Hut-78; type: cell-based, human; settings: 3H-thymidine uptake, 72 h
Text: as §1, §2

CCRF-CEM = assay: Proliferation (3H-thymidine) of CCRF-CEM; type: cell-based, human; settings: 3H-thymidine uptake, 72 h
Text: as §3, §4, §5

Primary T-cells Non-Act = assay: Proliferation (3H-thymidine) of non-activated primary T-cells; type: cell-based, human; settings: 3H-thymidine uptake, 72 h
Text: as §1, §2

[1] = test system: stage IA cutaneous T-lymphoma; settings: topical cream containing 5% Imiquimod; cited from earlier work
HH = assay: Proliferation (3H-thymidine) of HH; type: cell-based, human; settings: 3H-thymidine uptake, 72 h
Text: as §1, §2

Loucy = assay: Proliferation (3H-thymidine) of Loucy; type: cell-based, human; settings: 3H-thymidine uptake, 72 h
Text: as §3
as §4, with “blue. […]” for “blue.”

SupT1 = assay: Proliferation (3H-thymidine) of SupT1; type: cell-based, human; settings: SupT1
Text: as §3, §4, §5

H9 = assay: Proliferation (3H-thymidine) of H9; type: cell-based, human; settings: H9; 3H-thymidine uptake, 72 h
Text: as §3, §4, §5

Molt-4 = assay: Proliferation (3H-thymidine) of Molt-4; type: cell-based, human; settings: 3H-thymidine uptake, 72 h
Text: as §1, §2

Jurkat = assay: Proliferation (3H-thymidine) of Jurkat; type: cell-based, human
Text: as §3
as §4, with “blue. […]” for “blue.”

Hut 102 = assay: Proliferation (3H-thymidine) of Hut 102; type: cell-based, human; settings: 3H-thymidine uptake, 72 h
Text: as §1, §2

CEM-C7 = assay: Proliferation (3H-thymidine) of CEM-C7; type: cell-based, human; settings: 3H-thymidine uptake, 72 h
Text: as §3, §4, §5

[2] = test system: Primary T-cells Activated; assay: Proliferation (3H-thymidine) of activated primary T-cells; type: cell-based, human; settings: Primary T-cells, Activated
Text: as §3, §4, §5

CEM-C1 = assay: Proliferation (3H-thymidine) of CEM-C1; type: cell-based, human; settings: 3H-thymidine uptake, 72 h
Text: as §3
as §4, with “blue. […]” for “blue.”

A375 melanoma cells [3] = assay: A375 melanoma xenograft model; settings: IRAK-1,-4 inhibitor 35 mg/kg intratumorally, vinblastine 0.25 mg/kg i.p.; control 17 days
Description: (A-B) NSG mice (n=5) were injected subcutaneously with A375 melanoma cells. When tumors reached a size of approximately 50 mm^2 mice remained untreated or injected intraperitoneally with vinblastine mg/kg; administered every 2 days for 10 days), or peritumorally with IRAK-1,-4 inhibitor (35 mg/kg), or vinblastine plus IRAK.-1,-4 inhibitor. Tumor sizes were calculated by measuring perpendicular by longitudinal diameter;*, P<0.05. Mouse survival data were analyzed using the exact log-rank test;*, P<0.05, **P<0.001.
NOD.Cg-Prkdc^scid Il2rg^tmWJZ; SzJ IL2RG (NSG) mice (Jackson Laboratories, Bar Harbor, Me.) were subcutaneously (s.c.) injected with 2.5×10^6 A375 melanoma cells delivered in PBS. […] When tumors reached a size of approximately 50 mm^2 mice were injected intratumorally (i.t.) with 35 mg/kg of IRAK-1,-4 inhibitor or an equal volume of vehicle (DMSO). Mice were intraperitoneally (i.p.) injected with vinblastine (0.25 mg/kg) every 2 days for 5 days starting on the same day that mice received with IRAK-1,-4 inhibitor. Tumor sizes were analyzed using a mixed model approach for repeated measurements and mouse survival data were analyzed with the exact log-rank test.

A375 melanoma cells [4] = assay: Western blot of cleaved PARP and caspase-3; type: cell-based, human; settings: single agent alone, 48 hrs, FIG. 8D
Description: FIG. 8. […] (A) A375 and Malme-3M melanoma cells were cultured with or without 2.5 μM of IRAK-1,-4 and in the presence varying concentrations of vinblastine, cisplatin or 5′ Fluorouracil. Forty-eight hours later apoptosis was evaluated by staining cells with annexin-V and propidium iodide and analyzed by flow cytometry. (B) A375 cells were transfected via electroporation with siRNA-IRAK-1,-4. IRAK-1 protein levels were examined by Western blotting. […], A375-psiRNA-hIRAK-1, A375-psiRNA-hIRAK-4, or cells expressing both psiRNA-hIRAK-1 and -4 were cultured in the presence of vinblastine (100 nmol/L) for 48 hours and apoptosis was examined by flow cytometry. (C) A375 melanoma cells were cultured in the presence of vehicle alone (DMSO) or various concentrations of IRAK-1,-4. Forty-eight hours later cell lysates were used to analyze the expression of levels of cleaved PARP or caspase-3 by Western blots. (D) A375 melanoma cells were cultured with or without 2.5 μM of IRAK.-1,-4 and in the presence or absence of vinblastine for 48 hrs. PARP and caspase-3 levels were determined by Western blot.
Total cell extracts were prepared from melanoma cells. […] Melanoma tissue arrays were purchased from US Biomax, Inc (Rockville, Md.). For immunohistochemical staining samples were stained with mouse monoclonal anti-human phosphor-IRAK.-4 antibody (Abnova; dilution, 3.5 μg/ml) or normal mouse serum. Tissue histology sections (5-μm-thick) were deparaffinized, hydrated, heated in boiling 10 mmol/L sodium citrate (pH 6.0), for antigen retrieval, for 30 min and washed in Tris buffer. Peroxide blocking was done with 3% […] in methanol at room temperature for 15 min, followed by 10% fetal bovine serum in TBS-t for 30 min at room temperature. Primary antibody incubation was done overnight at 4° C. Secondary antibody incubation with horse anti-mouse (1:200; Vector Laboratories, Burlingame, Calif.) was done for 1 hr, followed by application of diaminobenzidine chromogen for 5 min. The slides were then counterstained with hematoxylin and topped with a coverslip. IHC specimens were analyzed using “quick score” system in which the intensity of the immunohistochemical reaction was scored by multiplying the intensity 1 (weak), 2 (moderate), and 3 (strong) and the proportion of cells staining positively 0 (<10%), 1 (10-25%), 2 (26-50%), 3 (51-75%) or 4 (>75%).

Structure (SMILES): CC(C)Cn1cnc2c(N)nc3ccccc3c21 [Imiquimod]
- Proliferative effects of TLR ligands (MO): ∘
- Proliferative effects of TLR ligands (HSB-2; 3H-thymidine uptake, 72 h): − (reduced proliferation)
- TLR ligand concentration in parentheses below the symbol (HSB-2; no unit in table (μg/ml)): (1.2)
- Proliferative effects of TLR ligands (CEM-C2): ∘
- Proliferative effects of TLR ligands (Hut-78): ∘
- Proliferative effects of TLR ligands (CCRF-CEM): ∘
- Proliferative effects of TLR ligands (Primary T-cells Non-Act): ∘
- treatment outcome [1]: successfully treated
- Proliferative effects of TLR ligands (HH): ∘
- Proliferative effects of TLR ligands (Loucy): ∘
- Proliferative effects of TLR ligands (SupT1; 3H-thymidine uptake, 72 h): − (reduced proliferation)
- TLR ligand concentration in parentheses below the symbol (SupT1; no unit in table (μg/ml)): (0.6)
- Proliferative effects of TLR ligands (H9): ∘
- Proliferative effects of TLR ligands (Molt-4): ∘
- Proliferative effects of TLR ligands (Jurkat; 3H-thymidine uptake, 72 h): − (reduced proliferation)
- TLR ligand concentration in parentheses below the symbol (Jurkat; no unit in table (μg/ml)): (10)
- Proliferative effects of TLR ligands (Hut 102): ∘
- Proliferative effects of TLR ligands (CEM-C7): ∘
- Proliferative effects of TLR ligands ([2]; 3H-thymidine uptake, 72 h): − (reduced proliferation)
- TLR ligand concentration in parentheses below the symbol ([2]; no unit in table (μg/ml)): (5)
- Proliferative effects of TLR ligands (CEM-C1): ∘

Structure (SMILES): CC[C@]1(O)C[C@@H]2CN(CCc3c([nH]c4ccccc34)[C@@](C(=O)OC)(c3cc4c(cc3OC)N(C)[C@H]3[C@@](O)(C(=O)OC)[C@H](OC(C)=O)[C@]5(CC)C=CCN6CC[C@]43[C@@H]65)C2)C1 [vinblastine]
- median survival (A375 melanoma cells [3]): 22 days
- levels of cleaved PARP and caspase-3 (A375 melanoma cells [4]): little effect
